Results on three molecules are retold here after ChEMBL document CHEMBL5696442, “Discovery of type II inhibitors of TGFβ-activated kinase 1 (TAK1) and mitogen-activated protein kinase kinase kinase kinase 2 (MAP4K2)” (J Med Chem, 2015).

Active and inactive are the calls of the source. The rule behind the calls is not given here.

For assay [1], the target named is Focal adhesion kinase 1 (Homo sapiens) (UniProt Q05397). Put plainly: Inhibition of FAK Lys1 labeling site in human Huh-7 cell lysate at 1 uM by KiNativ Profiling analysis relative to control. In kind it is subcellular.
Assay [2] has as its target Serine/threonine-protein kinase 26 (Homo sapiens) (UniProt Q9P289). The assay is described as follows: Inhibition of MST4 Lys2 labeling site in human Huh-7 cells at 1 uM by KiNativ Profiling analysis relative to control. In kind it is cell-based.
Assay [3] deals with 5'-AMP-activated protein kinase catalytic subunit alpha-1 (Homo sapiens) (UniProt Q13131). Put plainly: Inhibition of AMPKa1 Lys2 labeling site in human Huh-7 cell lysate at 1 uM by KiNativ Profiling analysis relative to control. In kind it is subcellular.
For assay [4], the target named is Myosin light chain kinase, smooth muscle (Homo sapiens) (UniProt Q15746). Put plainly: Inhibition of MYLK (unknown origin) at 1 uM by Ambit Kinomescan binding assay relative to control; values are per cent of control.
Assay [5] deals with Maternal embryonic leucine zipper kinase (Homo sapiens) (UniProt Q14680). Put plainly: Inhibition of MELK (unknown origin) at 1 uM by Ambit Kinomescan binding assay relative to control; values are per cent of control.
Sequence of Maternal embryonic leucine zipper kinase (Homo sapiens) (Q14680 whole entry, looked up): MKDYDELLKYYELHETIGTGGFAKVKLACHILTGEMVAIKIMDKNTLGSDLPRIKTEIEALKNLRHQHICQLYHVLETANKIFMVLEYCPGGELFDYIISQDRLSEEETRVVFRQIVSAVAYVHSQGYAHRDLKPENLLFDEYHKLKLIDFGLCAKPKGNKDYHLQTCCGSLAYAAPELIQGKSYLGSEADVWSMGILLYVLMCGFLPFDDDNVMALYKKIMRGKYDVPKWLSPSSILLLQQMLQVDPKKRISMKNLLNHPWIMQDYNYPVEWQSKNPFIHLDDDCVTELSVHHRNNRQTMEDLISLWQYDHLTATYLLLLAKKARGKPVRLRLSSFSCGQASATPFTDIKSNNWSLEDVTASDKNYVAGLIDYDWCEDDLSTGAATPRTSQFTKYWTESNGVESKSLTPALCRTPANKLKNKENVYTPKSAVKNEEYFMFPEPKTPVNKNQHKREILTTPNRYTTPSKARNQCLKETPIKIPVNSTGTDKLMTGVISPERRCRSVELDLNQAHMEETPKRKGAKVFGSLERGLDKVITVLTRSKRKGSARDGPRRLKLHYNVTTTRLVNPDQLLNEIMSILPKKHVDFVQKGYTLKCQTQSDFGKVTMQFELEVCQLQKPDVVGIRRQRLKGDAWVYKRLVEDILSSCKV
In assay [6] the target is T1, Serine/threonine-protein kinase D3 (Homo sapiens) (UniProt O94806).
T1 sequence (whole entry): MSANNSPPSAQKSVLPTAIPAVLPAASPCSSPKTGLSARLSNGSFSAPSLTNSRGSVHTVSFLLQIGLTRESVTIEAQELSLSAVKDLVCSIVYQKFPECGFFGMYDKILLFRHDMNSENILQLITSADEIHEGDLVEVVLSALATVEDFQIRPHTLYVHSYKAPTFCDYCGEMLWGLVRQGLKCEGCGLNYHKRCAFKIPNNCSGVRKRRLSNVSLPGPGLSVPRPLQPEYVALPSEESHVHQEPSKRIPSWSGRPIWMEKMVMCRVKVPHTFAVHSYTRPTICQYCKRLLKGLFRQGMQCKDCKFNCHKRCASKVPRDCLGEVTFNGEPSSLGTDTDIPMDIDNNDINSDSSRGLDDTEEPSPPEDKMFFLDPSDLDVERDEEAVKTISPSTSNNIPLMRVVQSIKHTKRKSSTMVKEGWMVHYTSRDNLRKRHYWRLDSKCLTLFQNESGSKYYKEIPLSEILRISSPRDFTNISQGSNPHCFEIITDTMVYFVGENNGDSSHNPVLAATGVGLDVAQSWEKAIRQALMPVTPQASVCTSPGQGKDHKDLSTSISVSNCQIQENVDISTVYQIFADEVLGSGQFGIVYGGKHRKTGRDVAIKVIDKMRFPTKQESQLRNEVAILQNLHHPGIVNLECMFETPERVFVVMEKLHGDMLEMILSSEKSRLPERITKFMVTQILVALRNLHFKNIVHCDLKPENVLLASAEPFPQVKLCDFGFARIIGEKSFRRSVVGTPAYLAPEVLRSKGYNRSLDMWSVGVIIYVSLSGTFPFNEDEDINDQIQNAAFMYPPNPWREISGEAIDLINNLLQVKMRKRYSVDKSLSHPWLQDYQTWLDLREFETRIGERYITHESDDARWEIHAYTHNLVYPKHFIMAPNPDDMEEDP
The assay is described as follows: Inhibition of PKD3 Lys2 labeling site in human A-375 cells at 5 uM by KiNativ Profiling analysis relative to control. It is filed as cell-based.

Assay [7] deals with Serine/threonine-protein kinase RIO1 (Homo sapiens) (UniProt Q9BRS2). The assay is described as follows: Inhibition of RIOK1 (unknown origin) at 1 uM by Ambit Kinomescan binding assay relative to control.
Assay [8] concerns the target Mitogen-activated protein kinase 14 (Homo sapiens, UniProt Q16539). The assay is described as follows: Inhibition of p38 alpha (unknown origin) at 1 uM by Ambit Kinomescan binding assay relative to control; values are per cent of control.
Assay [9] has as its target T2, Serine/threonine-protein kinase NLK (Homo sapiens) (UniProt Q9UBE8).
T2 sequence (whole entry): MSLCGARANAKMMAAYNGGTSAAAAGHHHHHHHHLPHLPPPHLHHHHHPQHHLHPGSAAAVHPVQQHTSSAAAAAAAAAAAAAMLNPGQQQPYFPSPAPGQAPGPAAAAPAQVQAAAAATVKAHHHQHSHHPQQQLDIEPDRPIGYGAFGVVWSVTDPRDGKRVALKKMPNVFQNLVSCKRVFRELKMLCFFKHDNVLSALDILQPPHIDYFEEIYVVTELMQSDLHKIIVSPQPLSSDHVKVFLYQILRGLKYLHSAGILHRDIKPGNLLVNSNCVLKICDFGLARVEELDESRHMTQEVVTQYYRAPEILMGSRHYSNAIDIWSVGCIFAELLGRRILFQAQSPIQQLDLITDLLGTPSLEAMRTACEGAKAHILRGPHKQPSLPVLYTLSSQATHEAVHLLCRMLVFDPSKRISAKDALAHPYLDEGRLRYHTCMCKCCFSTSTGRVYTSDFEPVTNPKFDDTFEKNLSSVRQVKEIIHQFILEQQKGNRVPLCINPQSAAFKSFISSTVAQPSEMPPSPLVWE
Put plainly: Inhibition of NLK (unknown origin) at 10 uM by Ambit Kinomescan binding assay relative to control; values are per cent of control.

In assay [10] the target is Serine/threonine-protein kinase MARK2 (Homo sapiens) (UniProt Q7KZI7). The assay is described as follows: Inhibition of MARK2 K1 labeling site harbouring HILTGKEVAVKIIDKTQLNSSSLQK in human Huh-7 cells at 1 uM by KiNativ Profiling analysis relative to control. In kind it is cell-based.
Assay [11] deals with Non-receptor tyrosine-protein kinase TNK1 (Homo sapiens) (UniProt Q13470). The assay is described as follows: Inhibition of TNK1 (unknown origin) at 10 uM by Ambit Kinomescan binding assay relative to control; values are per cent of control.
Sequence of Non-receptor tyrosine-protein kinase TNK1 (Homo sapiens) (Q13470 whole entry): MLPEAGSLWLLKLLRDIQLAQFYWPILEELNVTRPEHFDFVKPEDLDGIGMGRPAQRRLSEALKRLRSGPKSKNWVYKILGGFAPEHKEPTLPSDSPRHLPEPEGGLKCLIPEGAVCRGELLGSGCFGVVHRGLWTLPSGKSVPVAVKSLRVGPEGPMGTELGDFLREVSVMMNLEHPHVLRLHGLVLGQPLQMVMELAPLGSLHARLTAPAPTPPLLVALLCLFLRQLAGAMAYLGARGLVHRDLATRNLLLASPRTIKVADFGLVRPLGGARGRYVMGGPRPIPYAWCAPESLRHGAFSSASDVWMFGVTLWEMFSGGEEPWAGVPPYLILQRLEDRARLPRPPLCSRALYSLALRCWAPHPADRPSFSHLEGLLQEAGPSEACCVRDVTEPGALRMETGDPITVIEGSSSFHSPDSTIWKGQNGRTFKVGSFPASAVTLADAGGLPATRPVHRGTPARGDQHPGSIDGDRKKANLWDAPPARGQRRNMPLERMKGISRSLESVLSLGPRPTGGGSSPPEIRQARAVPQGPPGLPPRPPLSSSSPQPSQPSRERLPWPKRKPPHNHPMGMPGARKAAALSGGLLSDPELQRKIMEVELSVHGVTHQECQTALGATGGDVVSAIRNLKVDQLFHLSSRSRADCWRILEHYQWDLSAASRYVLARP
Assay [12] concerns Mast/stem cell growth factor receptor Kit (Homo sapiens), P10721 [V559D,T670I]. Put plainly: Inhibition of KIT V559D/T670I double mutant (unknown origin) at 10 uM by Ambit Kinomescan binding assay relative to control.
Sequence of Mast/stem cell growth factor receptor Kit (Homo sapiens), P10721 [V559D,T670I] (P10721 whole entry V559D/T670I): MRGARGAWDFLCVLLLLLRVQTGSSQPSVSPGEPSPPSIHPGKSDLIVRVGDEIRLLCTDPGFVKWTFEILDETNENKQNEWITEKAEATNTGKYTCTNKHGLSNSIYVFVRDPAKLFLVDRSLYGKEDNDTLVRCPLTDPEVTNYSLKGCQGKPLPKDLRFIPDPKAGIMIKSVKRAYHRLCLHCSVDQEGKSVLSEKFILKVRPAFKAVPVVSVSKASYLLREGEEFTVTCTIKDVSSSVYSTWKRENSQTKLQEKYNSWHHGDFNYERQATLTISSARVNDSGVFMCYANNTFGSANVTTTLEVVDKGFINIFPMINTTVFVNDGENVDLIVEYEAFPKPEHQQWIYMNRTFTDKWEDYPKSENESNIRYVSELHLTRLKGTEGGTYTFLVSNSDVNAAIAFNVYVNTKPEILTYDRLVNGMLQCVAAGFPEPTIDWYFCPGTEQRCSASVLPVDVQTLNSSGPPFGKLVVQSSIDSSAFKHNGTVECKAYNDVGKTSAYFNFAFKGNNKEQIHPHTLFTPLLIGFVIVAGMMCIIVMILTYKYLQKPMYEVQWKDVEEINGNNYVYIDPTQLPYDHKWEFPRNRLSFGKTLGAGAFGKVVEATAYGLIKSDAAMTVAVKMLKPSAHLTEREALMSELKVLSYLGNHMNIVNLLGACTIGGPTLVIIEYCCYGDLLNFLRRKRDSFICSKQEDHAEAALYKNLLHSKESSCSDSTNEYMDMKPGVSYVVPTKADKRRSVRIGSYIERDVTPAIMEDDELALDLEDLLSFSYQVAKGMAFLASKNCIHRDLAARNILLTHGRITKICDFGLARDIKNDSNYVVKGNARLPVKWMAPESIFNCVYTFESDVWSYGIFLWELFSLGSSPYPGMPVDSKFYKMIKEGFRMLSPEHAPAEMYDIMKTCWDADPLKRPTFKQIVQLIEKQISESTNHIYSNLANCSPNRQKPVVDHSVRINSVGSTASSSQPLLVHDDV
Assay [13] addresses Mitogen-activated protein kinase 7 (Homo sapiens) (UniProt Q13164). Put plainly: Inhibition of Erk5 K2 labeling site in human Huh-7 cells at 10 uM by KiNativ Profiling analysis relative to control. In kind it is cell-based.
Assay [14] concerns the target Hepatocyte growth factor receptor (Homo sapiens) (UniProt P08581). Put plainly: Inhibition of MET ACT labeling site in human Huh-7 cells at 10 uM by KiNativ Profiling analysis relative to control. It is filed as cell-based.
For assay [15], the target named is Ephrin type-B receptor 3 (Homo sapiens) (UniProt P54753). Put plainly: Inhibition of EPHB3 (unknown origin) at 10 uM by Ambit Kinomescan binding assay.
Sequence of Ephrin type-B receptor 3 (Homo sapiens) (P54753 whole entry): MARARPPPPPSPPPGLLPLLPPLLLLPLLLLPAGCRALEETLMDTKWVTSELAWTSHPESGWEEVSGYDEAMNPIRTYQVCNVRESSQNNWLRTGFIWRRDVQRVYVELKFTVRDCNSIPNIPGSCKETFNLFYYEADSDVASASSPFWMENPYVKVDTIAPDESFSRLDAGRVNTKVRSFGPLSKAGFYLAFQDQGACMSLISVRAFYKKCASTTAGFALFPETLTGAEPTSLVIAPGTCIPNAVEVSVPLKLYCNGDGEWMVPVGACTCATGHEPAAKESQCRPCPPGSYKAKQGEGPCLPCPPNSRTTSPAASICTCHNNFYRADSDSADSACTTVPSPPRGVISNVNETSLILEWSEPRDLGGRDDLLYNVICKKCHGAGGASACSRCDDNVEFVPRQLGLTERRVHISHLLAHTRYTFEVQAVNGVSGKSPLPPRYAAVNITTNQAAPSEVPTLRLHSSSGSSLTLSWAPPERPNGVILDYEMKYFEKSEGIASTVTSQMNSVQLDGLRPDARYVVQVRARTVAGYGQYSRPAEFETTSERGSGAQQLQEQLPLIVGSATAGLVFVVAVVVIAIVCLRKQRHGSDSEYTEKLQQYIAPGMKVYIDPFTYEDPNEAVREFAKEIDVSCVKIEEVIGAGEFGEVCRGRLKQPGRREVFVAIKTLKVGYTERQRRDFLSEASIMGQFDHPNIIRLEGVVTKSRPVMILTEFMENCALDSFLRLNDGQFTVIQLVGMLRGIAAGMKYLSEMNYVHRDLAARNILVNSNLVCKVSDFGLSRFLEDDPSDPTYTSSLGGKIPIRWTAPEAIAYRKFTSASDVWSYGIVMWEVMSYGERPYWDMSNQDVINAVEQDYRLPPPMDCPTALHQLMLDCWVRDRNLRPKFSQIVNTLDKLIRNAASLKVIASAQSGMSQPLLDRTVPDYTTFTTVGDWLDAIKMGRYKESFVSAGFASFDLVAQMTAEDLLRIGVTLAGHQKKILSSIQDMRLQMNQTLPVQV
Assay [16] deals with Microtubule-associated serine/threonine-protein kinase 2 (Homo sapiens) (UniProt Q6P0Q8). The assay is described as follows: Inhibition of MAST2 Lys2 labeling site in human A-375 cells at 5 uM by KiNativ Profiling analysis relative to control. In kind it is cell-based.
Assay [17] relates to Epidermal growth factor receptor (Homo sapiens), P00533 [UNDEFINED MUTATION]. The settings on record: dose 10.0 µM.

Sequence of Hepatocyte growth factor receptor (Homo sapiens) (P08581 whole entry): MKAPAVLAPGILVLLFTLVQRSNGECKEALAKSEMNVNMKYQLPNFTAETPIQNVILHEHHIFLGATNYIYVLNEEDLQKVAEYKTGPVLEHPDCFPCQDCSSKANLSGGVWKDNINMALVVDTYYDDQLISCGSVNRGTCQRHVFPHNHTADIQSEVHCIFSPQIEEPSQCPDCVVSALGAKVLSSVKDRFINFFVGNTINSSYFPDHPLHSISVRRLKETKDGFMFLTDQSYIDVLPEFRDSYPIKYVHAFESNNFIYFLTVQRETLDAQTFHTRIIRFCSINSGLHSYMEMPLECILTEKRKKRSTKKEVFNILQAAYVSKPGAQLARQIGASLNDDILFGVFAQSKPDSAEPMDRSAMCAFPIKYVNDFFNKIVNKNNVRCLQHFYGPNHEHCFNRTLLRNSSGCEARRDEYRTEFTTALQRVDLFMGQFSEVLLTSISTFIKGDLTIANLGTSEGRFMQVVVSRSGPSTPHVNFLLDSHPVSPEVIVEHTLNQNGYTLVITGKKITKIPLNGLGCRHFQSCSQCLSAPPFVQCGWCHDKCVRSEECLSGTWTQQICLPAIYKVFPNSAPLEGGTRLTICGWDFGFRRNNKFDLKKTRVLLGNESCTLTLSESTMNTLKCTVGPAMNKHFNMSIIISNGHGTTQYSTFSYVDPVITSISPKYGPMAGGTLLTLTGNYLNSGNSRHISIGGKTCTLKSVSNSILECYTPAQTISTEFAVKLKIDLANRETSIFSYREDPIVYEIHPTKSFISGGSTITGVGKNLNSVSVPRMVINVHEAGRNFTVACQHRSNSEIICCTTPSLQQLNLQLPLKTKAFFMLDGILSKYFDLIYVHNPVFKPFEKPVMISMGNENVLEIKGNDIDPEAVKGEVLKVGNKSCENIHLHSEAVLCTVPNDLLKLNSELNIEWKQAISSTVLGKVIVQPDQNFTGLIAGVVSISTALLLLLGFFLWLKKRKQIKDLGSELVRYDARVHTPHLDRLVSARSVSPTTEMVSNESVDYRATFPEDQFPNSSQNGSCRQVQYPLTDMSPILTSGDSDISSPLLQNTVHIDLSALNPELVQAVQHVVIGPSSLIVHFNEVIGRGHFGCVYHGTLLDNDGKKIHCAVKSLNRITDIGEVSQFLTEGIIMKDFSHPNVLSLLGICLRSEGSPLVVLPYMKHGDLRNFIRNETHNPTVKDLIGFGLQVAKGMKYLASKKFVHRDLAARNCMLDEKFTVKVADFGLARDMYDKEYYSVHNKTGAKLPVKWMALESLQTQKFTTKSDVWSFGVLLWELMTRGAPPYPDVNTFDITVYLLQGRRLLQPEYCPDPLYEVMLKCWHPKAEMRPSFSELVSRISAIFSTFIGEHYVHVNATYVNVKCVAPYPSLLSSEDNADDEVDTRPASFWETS
Sequence of Mitogen-activated protein kinase 14 (Q16539 whole entry): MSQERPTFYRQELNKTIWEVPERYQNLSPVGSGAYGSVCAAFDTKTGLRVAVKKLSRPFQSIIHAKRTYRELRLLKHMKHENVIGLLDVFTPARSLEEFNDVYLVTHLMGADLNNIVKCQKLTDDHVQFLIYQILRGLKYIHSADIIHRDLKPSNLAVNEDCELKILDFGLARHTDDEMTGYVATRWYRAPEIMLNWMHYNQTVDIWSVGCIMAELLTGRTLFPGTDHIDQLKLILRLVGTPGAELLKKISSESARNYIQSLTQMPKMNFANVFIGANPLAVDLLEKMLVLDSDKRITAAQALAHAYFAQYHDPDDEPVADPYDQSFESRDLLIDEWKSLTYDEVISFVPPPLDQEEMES

For orientation: inhibition means the relative decrease from the control value, in per cent. As to `CNc1cc(Oc2cc(C(=O)Nc3cc(N4CCN(C)CC4)cc(C(F)(F)F)c3)ccc2C)ncn1`, the inhibition in assay [1] came to 3.3%; in assay [2] it was 25.2%; in [3] it was 0.5%.
Consider `CCN1CCN(Cc2ccc(NC(=O)c3ccc(C)c(/C=C/c4cnc5[nH]ccc5c4OC)c3)cc2C(F)(F)F)CC1`, for which the residual activity is 81% in [4], 72% in assay [5] and 1.7% in assay [8]. For the same molecule, the inhibition in assay [6] came out at 7.3%; in assay [7], 20%.
As to `CCN1CCN(Cc2ccc(NC(=O)c3ccc(C)c(Oc4ccnc5[nH]ccc45)c3)cc2C(F)(F)F)CC1`, the percent of control in assay [9] came out at 14%. Further, the inhibition entry in [10] and in assay [15] was “inactive” throughout. In assay [11], this molecule came in with a residual activity of 0.35%. The inhibition in assay [12] is 0.05%; in assay [13], 12.4%; in assay [14], -8%; in assay [16], -6.1%; in [17], 1.2%.
